Structures can show the parent of a compound that is named as a salt.
Molecular target: T1, human TRPC6 (Homo sapiens, UniProt Q9Y210)
T1 construct: expressed in transfected cells
T1 sequence (Q9Y210 1-931): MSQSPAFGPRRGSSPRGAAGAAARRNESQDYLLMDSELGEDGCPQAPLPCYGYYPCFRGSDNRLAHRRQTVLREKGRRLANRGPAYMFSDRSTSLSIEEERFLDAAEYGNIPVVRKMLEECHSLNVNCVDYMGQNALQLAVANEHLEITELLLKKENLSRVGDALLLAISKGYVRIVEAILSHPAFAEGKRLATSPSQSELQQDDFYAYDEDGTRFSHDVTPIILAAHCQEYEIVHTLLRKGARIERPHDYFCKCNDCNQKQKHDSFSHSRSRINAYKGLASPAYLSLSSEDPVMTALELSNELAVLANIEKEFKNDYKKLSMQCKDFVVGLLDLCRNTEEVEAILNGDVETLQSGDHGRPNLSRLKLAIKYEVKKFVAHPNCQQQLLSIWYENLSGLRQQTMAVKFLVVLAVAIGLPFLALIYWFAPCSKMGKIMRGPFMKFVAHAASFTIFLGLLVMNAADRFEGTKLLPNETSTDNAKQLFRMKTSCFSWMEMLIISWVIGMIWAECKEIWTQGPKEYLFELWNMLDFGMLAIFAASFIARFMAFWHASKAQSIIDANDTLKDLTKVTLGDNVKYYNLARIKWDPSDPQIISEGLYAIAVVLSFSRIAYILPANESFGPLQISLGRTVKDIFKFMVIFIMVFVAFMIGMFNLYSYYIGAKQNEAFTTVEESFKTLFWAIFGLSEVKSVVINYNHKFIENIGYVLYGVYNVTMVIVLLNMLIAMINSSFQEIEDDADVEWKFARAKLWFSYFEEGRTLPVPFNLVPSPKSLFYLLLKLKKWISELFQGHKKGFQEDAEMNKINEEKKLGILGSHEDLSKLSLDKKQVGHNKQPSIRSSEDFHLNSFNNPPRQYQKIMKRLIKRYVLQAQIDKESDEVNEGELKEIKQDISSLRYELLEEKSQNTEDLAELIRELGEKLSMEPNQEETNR
Test: TRPC6 calcium flux assay (FLIPR, OAG-stimulated calcium influx)
Format: cell-based
Conditions: HEK293 cells stably transfected with human TRPC6, read-out: hTRPC6 Potency
How it was run: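 HEK293 cells stably expressing human TRPC6, loaded with calcium dye 90–120 min at RT, then given compound for 25 min before OAG (50 uM final, 0.5% DMSO) in HEPES buffer pH 7.2 with 2 mM CaCl2. Background-subtracted FLIPR peak over 180 s normalized to OAG vs buffer; IC50 from dose plot.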

Compared with `N#Cc1ccc(Cn2c(N3CCC[C@@H](N)C3)nc3ccccc32)cn1` [Example 292, (R)-5-((2-(3-aminopiperidin-1-yl)-1H-benzo[d]imidazol-1-yl)methyl)picolinonitrile 2,2,2-trifluoroacetate], `N#Cc1cnc(Cn2c(N3CCC(F)(F)[C@H](N)C3)nc3cc(Cl)ccc32)cn1` [Example 234, (R)-5-((2-(3-amino-4,4-difluoropiperidin-1-yl)-5-chloro-1H-benzo[d]imidazol-1-yl)methyl)pyrazine-2-carbonitrile] is 2.3-fold lower in IC50: 62.5 nM for the first, 26.9 nM for the second. The second is the more potent here.

Going from `CC(C)(C)NC(=O)c1ccc(Cn2c(N3CC[C@@H](F)[C@H](N)C3)nc3ncc(Cl)cc32)nc1` [Example 94, 6-((2-((3R,4R)-3-amino-4-fluoropiperidin-1-yl)-6-chloro-1H-imidazo[4,5-b]pyridin-1-yl)methyl)-N-(tert-butyl)nicotinamide] to `N[C@@H]1CN(c2nc3ccc(F)cc3n2CC(=O)N2CCOC[C@@H]2C2CC2)CC[C@H]1F` [Example 685, 2-(2-((3R,4R)-3-amino-4-fluoropiperidin-1-yl)-6-fluoro-1H-benzo[d]imidazol-1-yl)-1-((S)-3-cyclopropylmorpholino)ethan-1-one], the IC50 rises from 615 nM to 1160 nM (1.9-fold).

First: COc1ccc2c(c1)nc(N1CCC[C@@H](N)C1)n2Cc1ccc(C#N)cc1 [Example 186, (R)-4-((2-(3-aminopiperidin-1-yl)-5-methoxy-1H-benzo[d]imidazol-1-yl)methyl)benzonitrile]
Second: N#Cc1ccc(Cn2c(N3CCC(F)(F)[C@H](N)C3)nc3ccc(Cl)cc32)cc1 [Example 405]
The IC50 of the first is 390-fold higher: 278 nM for the first, 0.708 nM for the second.

`N[C@@H]1CN(c2nc3cc(F)c(F)cc3n2[C@H]2CCN(C3CC3)C2=O)CC[C@H]1F` [Example 549, (S)-3-(2-((3R,4R)-3-amino-4-fluoropiperidin-1-yl)-5,6-difluoro-1H-benzo[d]imidazol-1-yl)-1-cyclopropylpyrrolidin-2-one] and `N[C@@H]1CN(c2nc3cc(F)c(F)cc3n2Cc2nnc(C3CC3)o2)CC[C@H]1F` [Example 581, (3R,4R)-1-(1-((5-cyclopropyl-1,3,4-oxadiazol-2-yl)methyl)-5,6-difluoro-1H-benzo[d]imidazol-2-yl)-4-fluoropiperidin-3-amine] are within 1.5-fold of each other in IC50: 410 nM for the first, 368 nM for the second.

Compared with `N#Cc1ccc2nc(N3CC[C@@H](F)[C@H](N)C3)n(Cc3ncc(Cl)cn3)c2c1` [Example 187, 2-((3R,4R)-3-amino-4-fluoropiperidin-1-yl)-1-((5-chloropyrimidin-2-yl)methyl)-1H-benzo[d]imidazole-6-carbonitrile], `N#Cc1ccc(Cn2c(N3CC[C@@H]4OCCN[C@H]4C3)nc3ccccc32)nc1` [Example 132, 6-((2-((4aS,8aS)-hexahydro-2H-pyrido[4,3-b][1,4]oxazin-6(5H)-yl)-1H-benzimidazol-1-yl)methyl)-3-pyridinecarbonitrile] is 26-fold higher in IC50: 1.59 nM for the first, 42 nM for the second.

Compared with `N[C@@H]1CCCN(c2nc3ccccc3n2Cc2ccc(C(F)F)cc2)C1` [Example 381, (R)-1-(1-(4-(difluoromethyl)benzyl)-1H-benzo[d]imidazol-2-yl)piperidin-3-amine], `N[C@@H]1CN(c2nc3cc(F)c(F)cc3n2Cc2cccc(Cl)c2)CC[C@H]1F` [Example 367, (3R,4R)-1-(1-(3-chlorobenzyl)-5,6-difluoro-1H-benzimidazol-2-yl)-4-fluoro-3-piperidinamine] is 16-fold lower in IC50: 5680 nM for the first, 354 nM for the second.

Compared with `CO[C@H]1CCN(c2nc3cc(F)ccc3n2Cc2ncc(Cl)cn2)C[C@H]1N` [Example 477, (3R,4S)-1-(1-((5-chloropyrimidin-2-yl)methyl)-5-fluoro-1H-benzo[d]imidazol-2-yl)-4-methoxypiperidin-3-amine], `COc1ccc2nc(N3CC[C@@H](F)[C@H](N)C3)n(CC(=O)N(C)C)c2c1` [Example 448, 2-(2-((3R,4R)-3-amino-4-fluoropiperidin-1-yl)-6-methoxy-1H-benzo[d]imidazol-1-yl)-N,N-dimethylacetamide] is 8.4-fold lower in IC50: 1030 nM for the first, 123 nM for the second. The second is the more potent here.

First: COc1cnc(Cn2c(N3CC[C@@H](F)[C@H](N)C3)nc3cc(C#N)ccc32)nc1 [Example 241, 2-((3R,4R)-3-amino-4-fluoropiperidin-1-yl)-1-((5-methoxypyrimidin-2-yl)methyl)-1H-benzo[d]imidazole-5-carbonitrile hydrochloride]
Second: 4-((2-((3R,4R)-3-amino-4-hydroxypiperidin-1-yl)-1H-benzo[d]imidazol-1-yl)methyl)benzonitrile compound with 4-((2-((3S,4S)-3-amino-4-hydroxypiperidin-1-yl)-1H-benzo[d]imidazol-1-yl)methyl)benzonitrile (1:1) dihydrochloride [Example 155]
The IC50 of the first is higher: > 3750 nM for the first, 16.2 nM for the second.

Compared with `N[C@@H]1CN(c2nc3cc(F)c(F)cc3n2CC(=O)N2CCCC2)CC[C@H]1F` [Example 277, 2-(2-((3R,4R)-3-amino-4-fluoro-1-piperidinyl)-5,6-difluoro-1H-benzimidazol-1-yl)-1-(1-pyrrolidinyl)ethanone], `N#Cc1ccc2nc(N3CC[C@@H](F)[C@H](N)C3)n(Cc3ccc(C(F)(F)F)nc3)c2c1` [Example 243, 2-((3R,4R)-3-amino-4-fluoropiperidin-1-yl)-1-((6-(trifluoromethyl)pyridin-3-yl)methyl)-1H-benzo[d]imidazole-6-carbonitrile hydrochloride] is 4000-fold higher in IC50: 0.49 nM for the first, 1970 nM for the second.

Going from `N#Cc1ccc(Cn2c(N3CC[C@@H](F)[C@H](N)C3)nc3ccc(OC(F)F)cc32)nc1` [Example 118, 6-((2-((3R,4R)-3-amino-4-fluoro-1-piperidinyl)-6-(difluoromethoxy)-1H-benzimidazol-1-yl)methyl)-3-pyridinecarbonitrile] to `CN[C@@H]1CN(c2nc3cc(C#N)ccc3n2Cc2ncc(Cl)cn2)CC[C@H]1F` [Example 284, 1-((5-chloro-2-pyrimidinyl)methyl)-2-((3R,4R)-4-fluoro-3-(methylamino)-1-piperidinyl)-1H-benzimidazole-5-carbonitrile], the IC50 rises from 0.855 nM to 223 nM (260-fold).

First: CN(CC(F)(F)F)C(=O)Cn1c(N2CC[C@@H](F)[C@H](N)C2)nc2cc(F)cc(F)c21 [Example 591, 2-(2-((3R,4R)-3-amino-4-fluoropiperidin-1-yl)-5,7-difluoro-1H-benzo[d]imidazol-1-yl)-N-methyl-N-(2,2,2-trifluoroethyl)acetamide]
Second: N#Cc1ccc(Cn2c(N3CCC[C@H](N)C3)nc3cc(C#N)ccc32)nc1 [Example 52, (S)-2-(3-aminopiperidin-1-yl)-1-((5-cyanopyridin-2-yl)methyl)-1H-benzo[d]imidazole-5-carbonitrile]
The IC50 of the first is 66-fold higher: 1590 nM for the first, 24.2 nM for the second. The second is the more potent here.

First: CS(=O)(=O)CC1CCN(C(=O)Cn2c(N3CC[C@@H](F)[C@H](N)C3)nc3cc(F)c(F)cc32)C1 (stereo partly drawn) [Example 645, 2-(2-((3R,4R)-3-amino-4-fluoropiperidin-1-yl)-5,6-difluoro-1H-benzo[d]imidazol-1-yl)-1-(3-((methylsulfonyl)methyl)pyrrolidin-1-yl)ethanone]
Second: CN(C(=O)Cn1c(N2CC[C@@H](F)[C@H](N)C2)nc2cc(F)c(F)cc21)C1CCS(=O)(=O)CC1 [Example 651, 2-(2-((3R,4R)-3-amino-4-fluoropiperidin-1-yl)-5,6-difluoro-1H-benzo[d]imidazol-1-yl)-N-(1,1-dioxidotetrahydro-2H-thiopyran-4-yl)-N-methylacetamide]
The IC50 of the first is lower: 2300 nM for the first, > 3750 nM for the second. The first is the more potent here.

Going from `N[C@@H]1CN(c2nc3c(F)cc(F)cc3n2Cc2ncc(F)cn2)CC[C@H]1F` [Example 35, (3R,4R)-1-(4,6-difluoro-1-((5-fluoropyrimidin-2-yl)methyl)-1H-benzo[d]imidazol-2-yl)-4-fluoropiperidin-3-amine] to `N[C@@H]1CN(c2nc3cc(F)c(F)cc3n2Cc2ccc(F)cc2Cl)CC[C@H]1F` [Example 355, (3R,4R)-1-(1-(2-chloro-4-fluorobenzyl)-5,6-difluoro-1H-benzimidazol-2-yl)-4-fluoro-3-piperidinamine], the IC50 rises from 0.491 nM to 37 nM (75-fold). The first is the more potent here.

Going from `N[C@@H]1CN(c2nc3cc(F)c(F)cc3n2Cc2cc(Cl)ccc2OC(F)(F)F)CC[C@H]1F` [Example 338, (3R,4R)-1-(1-(5-chloro-2-2-(trifluoromethoxy)benzyl)-5,6-difluoro-1H-benzimidazol-2-yl)-4-fluoro-3-piperidinamine] to `N[C@@H]1CN(c2nc3ccccc3n2Cc2ccc(Cl)cn2)CC[C@@H]1F` [Example 86, (3R,4S)-1-(1-((5-chloropyridin-2-yl)methyl)-1H-benzo[d]imidazol-2-yl)-4-fluoropiperidin-3-amine hydrochloride], the IC50 falls from > 3750 nM to 1.37 nM. The second is the more potent here.

— patent US11332459B2 (TEIJIN PHARMA LIMITED, priority 2017, dated 2022)
